{"source": "patent US12441704B2", "about": "“Compounds active towards nuclear receptors” (NUEVOLUTION A/S, priority 2019, dated 2025)", "key": {"[1]": {"biological_target": "T1, RORγ ligand-binding domain fused to Gal4 (Homo sapiens, UniProt P51449)", "T1 construct": "Gal4 (galactose-responsive transcription factor); expressed in transfected cells; host or cells: HEK293", "T1 sequence (P51449 269-508 limits assumed)": "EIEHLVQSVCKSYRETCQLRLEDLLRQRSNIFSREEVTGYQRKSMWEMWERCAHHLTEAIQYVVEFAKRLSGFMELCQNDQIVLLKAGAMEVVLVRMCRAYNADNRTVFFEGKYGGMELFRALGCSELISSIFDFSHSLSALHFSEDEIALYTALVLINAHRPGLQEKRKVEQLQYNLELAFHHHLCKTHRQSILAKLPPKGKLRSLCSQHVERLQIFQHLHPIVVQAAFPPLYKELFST", "experiment": "RORγ Reporter Assay (Gal4)", "type": "cell-based", "outline": "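HEK293 cells transiently co-transfected with the Gal4-fused RORγ LBD and a UAS-luciferase reporter were exposed to compounds for 24 h at 37 °C (0.1% DMSO final). Luminescence was read, and percent reduction of RORγ activity was calculated relative to vehicle-average RLU.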"}, "[2]": {"tested_on": "IL-17A secretion in activated PBMCs", "experiment": "IL-17A secretion in activated PBMCs", "type": "cell-based, human", "details": "human PBMCs stimulated with CD3/CD28 Dynabeads for 48 h, absolute IC50", "protocol": "Heparin-treated whole blood from healthy human volunteers was supplied from Hospital de Sant Pau (Barcelona) under the approval of the local ethical review board for human studies (Hospital de Sant Pau, Barcelona, Spain). Human peripheral blood mononuclear cells (PBMCs) were isolated from healthy human volunteers by density gradient centrifugation using the Ficoll-Paque (GE Healthcare). […] Cells were seeded in 384-well plate (DiscoverX), at 40,000 cells per well and cultured 2 h at 37° C. and 5% CO2.\nDose-response curves with compounds were prepared using a 5-fold serial dilution (10 concentrations) in 100% DMSO and further diluted 100-fold in culture medium. Compound solutions (5 μL) were added to the plate containing cells (final DMSO concentration of 0.1%) and incubated for 30 min. Then, cells were stimulated with CD3/CD28 Dynabeads (ThermoFisher, at a bead-to-cell ratio of 1:1) for 48 h at 37° C. and 5% CO2.\nIL-17A levels in supernatant were determined by immunoassay using hIL17A QBeads (Intellicyt) and by fluorescence analysis in iQue flow cytometer following the manufacturer's instructions. Inhibition of IL-17A secretion was calculated using the following formula: inhibition=100*[1−[(x−mean basal condition)/(mean top condition−mean basal condition)]]. Activated DMSO-treated cells were used as top condition and activated GNE09461 (10 μM)-treated cells as basal condition."}, "[3]": {"details": "HEK293 cells co-transfected with RORγ LBD-Gal4 and luciferase reporter, 24 h incubation, absolute EC50, read-out: EC50"}, "[4]": {"details": "compounds of the present disclosure, value from Table 2 herein, read-out: Gal4 assay EC50"}}, "note": "Read-outs that look alike come from different tables or passages of the source.", "data": [{"smiles": "CCN(Cc1ccc(C(O)(C(F)(F)F)C(F)(F)F)cc1)c1ncnc(NC[C@]2(O)CCN(CC(N)=O)C[C@H]2O)c1F", "note": "(relative stereo) [Example D5-04, rel-2-((3R,4R)-4-(((6-(ethyl(4-(1,1,1,3,3,3-hexafluoro-2-hydroxypropan-2-yl)benzyl)amino)-5-fluoropyrimidin-4-yl)amino)methyl)-3,4-dihydroxypiperidin-1-yl)acetamide]", "values": [{"measurement": "EC50", "setting": "[1]; [3]", "value": 5.5, "unit": "nM"}, {"measurement": "IC50", "setting": "[2]; Homo sapiens, PBMC, 48 h", "value": 1, "unit": "nM"}]}, {"smiles": "CCN(Cc1ccc(C(F)(F)F)cc1)c1ncnc(NC[C@@]2(O)CCN(C(C(N)=O)c3ccncc3)C[C@@H]2O)c1F", "note": "(relative stereo) [Example D5-07, rel-2-((3R,4R)-4-(((6-(ethyl(4-(trifluoromethyl)benzyl)amino)-5-fluoropyrimidin-4-yl)amino)methyl)-3,4-dihydroxypiperidin-1-yl)-2-(pyridin-4-yl)acetamide]", "values": [{"measurement": "EC50", "setting": "[1]; [3]", "value": 4.5, "unit": "nM"}, {"measurement": "IC50", "setting": "[2]; Homo sapiens, PBMC, 48 h", "value": 2.5, "unit": "nM"}]}, {"smiles": "NC(=O)C(c1ccncc1)N1CC[C@](O)(CNc2ncnc(N(Cc3ccc(C(F)(F)F)cc3)C3CC3)c2F)[C@@H](O)C1", "note": "(relative stereo) [Example D5-08, rel-2-((3R,4R)-4-(((6-(cyclopropyl(4-(trifluoromethyl)benzyl)amino)-5-fluoropyrimidin-4-yl)amino)methyl)-3,4-dihydroxypiperidin-1-yl)-2-(pyridin-4-yl)acetamide]", "values": [{"measurement": "EC50", "setting": "[1]; [3]", "value": 6.1, "unit": "nM"}, {"measurement": "IC50", "setting": "[2]; Homo sapiens, PBMC, 48 h", "value": 2.7, "unit": "nM"}]}, {"smiles": "NC(=O)CN1CC[C@@H](CNc2ncnc(N(Cc3ccc(C(F)(F)F)cn3)C3CC3)c2F)[C@H](O)C1", "note": "(single isomer, unassigned) [Example A7-14-1]", "values": [{"measurement": "EC50", "setting": "[1]; [3]", "value": 8.3, "unit": "nM"}, {"measurement": "EC50", "setting": "[1]; [4]", "value": "< 100", "unit": "nM"}, {"measurement": "IC50", "setting": "[2]; Homo sapiens, PBMC, 48 h", "value": 38, "unit": "nM"}]}, {"smiles": "NC(=O)CN1CC[C@@H](CNc2ncnc(N(Cc3ccc(C(F)(F)F)nc3)C3CC3)c2F)[C@H](O)C1", "note": "(single isomer, unassigned) [Example A7-28-1]", "values": [{"measurement": "EC50", "setting": "[1]; [3]", "value": 42, "unit": "nM"}, {"measurement": "IC50", "setting": "[2]; Homo sapiens, PBMC, 48 h", "value": 62, "unit": "nM"}]}, {"smiles": "NC(=O)CN1CC[C@H](CNc2ncnc(N(Cc3ccc(C(F)(F)F)nc3)C3CC3)c2F)[C@@H](O)C1", "note": "(single isomer, unassigned) [Example A7-28-2]", "values": [{"measurement": "EC50", "setting": "[1]; [4]", "value": "< 100", "unit": "nM"}, {"measurement": "IC50", "setting": "[2]; Homo sapiens, PBMC, 48 h", "value": 81, "unit": "nM"}]}, {"smiles": "NC(=O)CN1CC[C@@H](CNc2ncnc(N(Cc3ccc(C(O)(C(F)(F)F)C(F)(F)F)cc3)C3CC3)c2F)[C@H](O)C1", "note": "(single isomer, unassigned) [Example A7-54-1]", "values": [{"measurement": "EC50", "setting": "[1]; [3]", "value": 3.8, "unit": "nM"}, {"measurement": "IC50", "setting": "[2]; Homo sapiens, PBMC, 48 h", "value": 9.8, "unit": "nM"}]}, {"smiles": "CCN(Cc1ccc(C(F)(F)F)cc1)c1ncnc(NC[C@]2(O)CCN(CC(N)=O)C[C@H]2O)c1F", "note": "(single isomer, unassigned) [Example D5-01-1-2]", "values": [{"measurement": "EC50", "setting": "[1]; [3]", "value": 9.6, "unit": "nM"}, {"measurement": "IC50", "setting": "[2]", "value": 24, "unit": "nM"}]}, {"smiles": "Cn1cc(-c2ccc(CN(c3ncnc(NC[C@]4(O)CCN(CC(N)=O)C[C@H]4O)c3F)C3CC3)c(F)c2)cn1", "note": "(single isomer, unassigned) [Example D5-05-2]", "values": [{"measurement": "EC50", "setting": "[1]; [3]", "value": 29, "unit": "nM"}, {"measurement": "IC50", "setting": "[2]", "value": 200, "unit": "nM"}]}, {"smiles": "NC(=O)CN1CC[C@H](CNc2ncnc(N(Cc3ccc(C(F)(F)F)cc3)C3CC3)c2F)[C@@H](O)C1", "note": "(stereo in doubt) [Example A7-01-2, rel-2-((3R,4R)-4-(((6-(Cyclopropyl(4-(trifluoromethyl)benzyl)amino)-5-fluoropyrimidin-4-yl)amino)methyl)-3-hydroxypiperidin-1-yl)acetamide]", "values": [{"measurement": "EC50", "setting": "[1]; [3]", "value": 1.5, "unit": "nM"}, {"measurement": "IC50", "setting": "[2]; Homo sapiens, PBMC, 48 h", "value": 2.7, "unit": "nM"}]}, {"smiles": "CCN(Cc1ccc(C(F)(F)F)cc1F)c1ncnc(NC[C@H]2CCN(CC(N)=O)C[C@@H]2O)c1F", "note": "(stereo in doubt) [Example A7-26-2, rel-2-((3R,4R)-4-(((6-(ethyl(2-fluoro-4-(trifluoromethyl)benzyl)amino)-5-fluoropyrimidin-4-yl)amino)methyl)-3-hydroxypiperidin-1-yl)acetamide]", "values": [{"measurement": "EC50", "setting": "[1]; [3]", "value": 8.5, "unit": "nM"}, {"measurement": "IC50", "setting": "[2]; Homo sapiens, PBMC, 48 h", "value": 29, "unit": "nM"}]}, {"smiles": "NC(=O)CN1CC[C@@H](CNc2ncnc(N(Cc3ccc(C(O)(C(F)(F)F)C(F)(F)F)cc3)C3CC3)c2F)[C@H](O)C1", "note": "(stereo in doubt) [Example A7-54, rac-2-((3R,4R)-4-(((6-(cyclopropyl(4-(1,1,1,3,3,3-hexafluoro-2-hydroxypropan-2-yl)benzyl)amino)-5-fluoropyrimidin-4-yl)amino)methyl)-3-hydroxypiperidin-1-yl)acetamide]", "values": [{"measurement": "EC50", "setting": "[1]; [3]", "value": 0.6, "unit": "nM"}, {"measurement": "IC50", "setting": "[2]; Homo sapiens, PBMC, 48 h", "value": 5.6, "unit": "nM"}]}, {"smiles": "NC(=O)CN1CC[C@H](CNc2ncnc(N(Cc3ccc(C(O)(C(F)(F)F)C(F)(F)F)cc3)C3CC3)c2F)[C@@H](O)C1", "note": "(stereo in doubt) [Example A7-54-2, rel-2-((3R,4R)-4-(((6-(cyclopropyl(4-(1,1,1,3,3,3-hexafluoro-2-hydroxypropan-2-yl)benzyl)amino)-5-fluoropyrimidin-4-yl)amino)methyl)-3-hydroxypiperidin-1-yl)acetamide]", "values": [{"measurement": "EC50", "setting": "[1]; [3]", "value": 2.5, "unit": "nM"}, {"measurement": "IC50", "setting": "[2]; Homo sapiens, PBMC, 48 h", "value": 6.2, "unit": "nM"}]}, {"smiles": "Cc1cc(C(F)(F)F)ccc1CN(c1ncnc(NCC2CCN(CC(N)=O)CC2)c1F)C1CC1", "note": "[Example A7-02, 2-(4-(((6-(cyclopropyl(2-methyl-4-(trifluoromethyl)benzyl)amino)-5-fluoropyrimidin-4-yl)amino)methyl)piperidin-1-yl)acetamide]", "values": [{"measurement": "EC50", "setting": "[1]; [3]", "value": 76, "unit": "nM"}, {"measurement": "IC50", "setting": "[2]; Homo sapiens, PBMC, 48 h", "value": 58, "unit": "nM"}]}, {"smiles": "NC(=O)CN1CCC(O)(CNc2ncnc(N(Cc3ccc(C(F)(F)F)cn3)C3CC3)c2F)CC1", "note": "[Example A7-09, 2-(4-(((6-(cyclopropyl((5-(trifluoromethyl)pyridin-2-yl)methyl)amino)-5-fluoropyrimidin-4-yl)amino)methyl)-4-hydroxypiperidin-1-yl)acetamide]", "values": [{"measurement": "EC50", "setting": "[1]; [3]", "value": 44, "unit": "nM"}, {"measurement": "EC50", "setting": "[1]; [4]", "value": "< 100", "unit": "nM"}, {"measurement": "IC50", "setting": "[2]; Homo sapiens, PBMC, 48 h", "value": 190, "unit": "nM"}]}, {"smiles": "NC(=O)CN1CCC(O)(CNc2ncnc(N(Cc3ccc(C(F)(F)F)cc3)C3CC3)c2F)CC1", "note": "[Example A7-10, 2-(4-(((6-(cyclopropyl(4-(trifluoromethyl)benzyl)amino)-5-fluoropyrimidin-4-yl)amino)methyl)-4-hydroxypiperidin-1-yl)acetamide]", "values": [{"measurement": "EC50", "setting": "[1]; [3]", "value": 3.3, "unit": "nM"}, {"measurement": "IC50", "setting": "[2]; Homo sapiens, PBMC, 48 h", "value": 17, "unit": "nM"}]}, {"smiles": "NC(=O)CN1CCC(O)(CNc2ncnc(N(Cc3ccc(C(F)(F)F)nc3)C3CC3)c2F)CC1", "note": "[Example A7-11, 2-(4-(((6-(cyclopropyl((6-(trifluoromethyl)pyridin-3-yl)methyl)amino)-5-fluoropyrimidin-4-yl)amino)methyl)-4-hydroxypiperidin-1-yl)acetamide]", "values": [{"measurement": "EC50", "setting": "[1]; [3]", "value": 72, "unit": "nM"}, {"measurement": "EC50", "setting": "[1]; [4]", "value": "< 100", "unit": "nM"}, {"measurement": "IC50", "setting": "[2]; Homo sapiens, PBMC, 48 h", "value": 200, "unit": "nM"}]}, {"smiles": "NC(=O)CN1CCC(CNc2ncnc(N(Cc3ccc(C(F)(F)F)cc3)C3CC3)c2F)(C(N)=O)CC1", "note": "[Example A7-44, 1-(2-amino-2-oxoethyl)-4-(((6-(cyclopropyl(4-(trifluoromethyl)benzyl)amino)-5-fluoropyrimidin-4-yl)amino)methyl)piperidine-4-carboxamide]", "values": [{"measurement": "EC50", "setting": "[1]; [3]", "value": 24, "unit": "nM"}, {"measurement": "IC50", "setting": "[2]; Homo sapiens, PBMC, 48 h", "value": 74, "unit": "nM"}]}, {"smiles": "NC(=O)CN1CCC(CO)(CNc2ncnc(N(Cc3ccc(C(F)(F)F)nc3)C3CC3)c2F)CC1", "note": "[Example A7-45, 2-(4-(((6-(cyclopropyl((6-(trifluoromethyl)pyridin-3-yl)methyl)amino)-5-fluoropyrimidin-4-yl)amino)methyl)-4-(hydroxymethyl)piperidin-1-yl)acetamide]", "values": [{"measurement": "EC50", "setting": "[1]; [3]", "value": 46, "unit": "nM"}, {"measurement": "EC50", "setting": "[1]; [4]", "value": "< 100", "unit": "nM"}, {"measurement": "IC50", "setting": "[2]; Homo sapiens, PBMC, 48 h", "value": 80, "unit": "nM"}]}, {"smiles": "N#CC1(CNc2ncnc(N(Cc3ccc(C(F)(F)F)cc3)C3CC3)c2F)CCN(CC(N)=O)CC1", "note": "[Example A7-50, 2-(4-cyano-4-(((6-(cyclopropyl(4-(trifluoromethyl)benzyl)amino)-5-fluoropyrimidin-4-yl)amino)methyl)piperidin-1-yl)acetamide]", "values": [{"measurement": "EC50", "setting": "[1]; [3]", "value": 8.1, "unit": "nM"}, {"measurement": "IC50", "setting": "[2]; Homo sapiens, PBMC, 48 h", "value": 40, "unit": "nM"}]}]}
